Data from patent US20040014721A1, “Method for using tethered bis(polyhydroxyphenyls) and O-alkyl derivatives thereof in treating inflammatory conditions of the central nervous system” (Oklahoma Medical Research Foundation, priority 2002, published 2004).

Assays:
[1] = tested on: EOC-20 cells
Method: Lower IC50 values indicate improved efficacy. FIG. 2 illustrates the principle of the measurement using NDGA as an example test agent. In order to determine viability, cell culture medium was replaced with phenol-free DMEM (Gibco) containing 20 μL/mL of MTT viability reagent (Promega). […] Control cells were taken to indicate 100% viability and intermediate values of MTT reduction were scaled to percentage of control. For each compound, an LD50 value was determined by extrapolation through sublethal concentrations. This value represents the concentration that reduced the MTT viability parameter by 50%.

[2] = tested on: G93A-SOD1 mice; assay: G93A-SOD1 mouse ALS model, NDGA i.p.: rotorod and survival; type: in vivo
Method: More subtle defects in motor performance are measured using a rotorod device. The animals are placed on a horizontal rod set to spin about its long axis, initially at 1 rpm. The revolution rate is increased at a constant rate of 1 rpm every 10 sec and the experiment continues until the animal falls off the rod. In contrast to mice bearing mutant SOD1 transgenes, animals bearing the wild-type human SOD1 transgenes display healthy motor function.
The G93A-SOD1 mice were used to test for in vivo efficacy of a benchmark tethered bis(polyhydroxyphenyl) compound, nordihydroguaiaretic acid (NDGA). In one experiment, 10 G93A-SOD1 animals were trained to the rotorod task at 85 days of age. At 90 days of age, animals were divided into two groups of 5 animals each. One group was injected intraperitoneally with NDGA (10 mg/kg, 5 days/week, in 95% saline/5% DMSO vehicle). The control group received vehicle only. Animals were tested on the rotorod device every 5 days subsequently.
Initially, rotorod performance characteristics improve in all mice as the animals become acquainted with the apparatus. At 100 days animals obtain peak performance (FIG. 3A). At timepoints subsequent to 100 day, animals decline in motor performance. In order to control for differences in initial strength amongst the 10 animals, all data subsequent to the 100 day timepoint was expressed as a percentage relative to the peak performance at 100 day (FIGS. 3B and 3C). […] When the data in FIG. 3B were assessed using repeated measures analysis of variance (ANOVA), a significant age X treatment effect was observed (p<0.005). At the 120D timepoint, the statistical assessment by Student's t-test indicates p<0.08 between drug and vehicle groups (i.e. 92% probability of a protective drug effect).
The potency of NDGA in vitro inspired further study in vivo. Two separate studies were performed. In the first experiment, 10 G93A-SOD1 mice were randomized into groups receiving 10 mg/kg NDGA i.p. or vehicle alone, beginning at 90 D of age. […] Rotarod performance tests were conducted at 5 D intervals. […] The median lifespan of the five NDGA-treated animals was 127 D, as compared to 121 D for the control group, representing a 20% extension of lifespan after the start of treatment.
In a separate experiment, NDGA was administered intraperitoneally to a small group of G93A-SOD1 mice (5 control and 5 drug-treated animals; 10 mg/kg 5 days/week beginning at 90 D). In this paradigm, NDGA also extended survival although logrank statistics were not formally significant (median lifespan after start of treatment=31 D in control animals and 37 D in NDGA-treated animals; p=0.074 by logrank test). […] The i.p. administration of NDGA was somewhat affected by the inclusion of DMSO in vehicle; G93A-SOD1 mice receiving DMSO alone died approximately 10 D sooner than normally would be expected from these animals. Taken together, the data strongly indicate a positive effect of NDGA on the prognosis of disease in rapidly-progressing G93A-SOD1 mice.

[3] = tested on: C57/B6 mice; assay: 3-nitropropionic acid (3NP) striatal damage model, rotarod and balance beam; type: in vivo; settings: 2500 ppm in diet for one month, then 3NP 50 mg/kg i.p. every 12 h for 5 days
Method: Mice were then injected with 50 mg/kg 3NP intraperitoneally, every 12 h for 5 days. Motor performance was assessed daily by a rotarod task and balance was assessed by a balance wire task. In the rotarod task (Hensley et al. 2002), animals were placed on a bar rotating at 1 rpm and accelerating 10 rpm/minute until the animal fell from the bar. In the balance beam test, mice were placed on a 2-cm balance beam by suspending them by the tail, orienting them perpendicular to the beam, and placing the forepaws followed by hindpaws on the balance beam. Mice were left on the beam until they fell onto a soft cushion 75 cm below or until 5 min elapsed. The longest time of each pair of trials was used for statistical analysis.

[4] = tested on: mice; settings: cited from earlier work

For `C[C@H](Cc1ccc(O)c(O)c1)[C@@H](C)Cc1ccc(O)c(O)c1` [NDGA, 1,4-bis (3,4-Dihydroxyphenyl)-2,3-dimethylbutane], the “toxicity at 100 μM” value [1] was “no toxicity”, the “median lifespan after start of treatment” value ([2]; 10 mg/kg i.p. 5 days/week from 90 D) was 37 D and the “extension of lifespan after the start of treatment” value ([2]; 10 mg/kg i.p. from 90 D) was 20%. The median lifespan ([2]; 10 mg/kg i.p. from 90 D) was 127 D, the “reduction in rate of motor functional decline relative to vehicle” value ([2]; 10 mg/kg i.p. from 90 D, linear regression 100-120D) was 38% and the “slope of motor functional decline” value ([2]; 10 mg/kg i.p., 100-120D) was 2.96 % decrease/day. The “rotarod performance” value ([2]; i.p. administration) was “not significantly affected”, the “balance test” value [3] was “significantly improved functional ability” and the “rotarod test” value [3] was “significantly improved functional ability”. For the same molecule, the “effects of long-term feeding” value ([4]; 0.5% of the diet, long-term, mice) was “no ill effects” and the LD50 ([4]; mouse, in vivo, ip) was “greater than 500 mg/kg”.
